The source of these data is article PMC8748870, “Topoisomerase I (TOP1) dynamics: conformational transition from open to closed states” (Nature Communications, 2022).

For this assay, the target named is T1, HsTOP1 (Homo sapiens, UniProt P11387).
T1 construct: gene TOP1; recombinant human TOP1, wild type, purified from baculovirus expression
T1 sequence (P11387 2-765): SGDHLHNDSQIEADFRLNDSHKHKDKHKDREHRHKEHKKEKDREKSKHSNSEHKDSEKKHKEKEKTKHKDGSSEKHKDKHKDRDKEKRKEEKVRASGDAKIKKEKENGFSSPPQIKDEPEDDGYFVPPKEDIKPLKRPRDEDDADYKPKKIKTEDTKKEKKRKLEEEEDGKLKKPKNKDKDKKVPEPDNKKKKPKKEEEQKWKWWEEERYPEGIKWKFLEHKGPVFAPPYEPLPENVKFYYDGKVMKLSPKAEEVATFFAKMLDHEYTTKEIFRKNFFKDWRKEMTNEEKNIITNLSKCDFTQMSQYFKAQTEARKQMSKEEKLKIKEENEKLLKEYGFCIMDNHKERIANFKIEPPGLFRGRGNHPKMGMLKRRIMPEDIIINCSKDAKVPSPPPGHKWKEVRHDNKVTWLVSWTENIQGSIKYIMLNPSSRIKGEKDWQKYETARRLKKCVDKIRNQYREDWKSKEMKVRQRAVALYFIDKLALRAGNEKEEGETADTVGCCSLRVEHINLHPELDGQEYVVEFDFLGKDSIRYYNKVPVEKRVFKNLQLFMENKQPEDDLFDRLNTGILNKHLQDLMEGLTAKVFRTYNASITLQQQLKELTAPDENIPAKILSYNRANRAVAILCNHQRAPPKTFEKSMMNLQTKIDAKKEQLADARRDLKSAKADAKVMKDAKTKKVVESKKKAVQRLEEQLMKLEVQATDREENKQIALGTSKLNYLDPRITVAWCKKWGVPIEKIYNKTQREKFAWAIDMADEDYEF
Kind of assay: […]-labelled oligonucleotide cleavage assay, denaturing PAGE. Type of assay: biochemical. To be noted: traps TOP1-DNA cleavage complex; 30-bp DNA, pH 7.5, 5 mM Mg2+, 50 mM KCl, 25 °C.

Regarding `CC[C@@]1(O)C(=O)OCc2c1cc1n(c2=O)Cc2cc3ccccc3nc2-1` [CPT, camptothecin], the CPT-dependent cleavage bands entry is on record as “incubation of HsTOP1 induced TOP1ccs exclusively in the presence of CPT”.
